Reference: the supplement of paper PMC12137928
Structures can show the parent of a compound that is named as a salt.

Test system: HCT116
Settings: 72 h
In short: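 After seeding at 250 cells per well in 1536-well plates, HCT116 cells were given 5 h to attach. CellTiter-Glo luminescence, scaled to 0% for vehicle and -100% for positive control, was pattern-corrected. Fitting with a four-parameter Hill model produced IC50 and maximal efficacy.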

Row | IC50 cell viability (ICRF193 0 nM) | IC50 cell viability (ICRF193 200 nM) | Structure (SMILES)
1 | > 45.8 µM | > 45.8 µM | C[C@@H](O)[C@H]1C(=O)N2C(C(=O)[O-])=C(SC3Cn4cnc[n+]4C3)[C@H](C)[C@H]12 (some centres undefined) [Biapenem]
2 | > 45.8 µM | > 45.8 µM | CCOC(=O)[C@H](CS)NCCN[C@@H](CS)C(=O)OCC [Bicisate dihydrochloride]
3 | > 45.8 µM | > 45.8 µM | CCOCCn1c(C2CCN(CCc3ccc(C(C)(C)C(=O)O)cc3)CC2)nc2ccccc21 [Bilastine]
4 | > 45.8 µM | > 45.8 µM | O=C(COCCOCCOCC(=O)Nc1c(I)cc(I)c(C(=O)O)c1I)Nc1c(I)cc(I)c(C(=O)O)c1I [Biliscopin]
5 | > 45.8 µM | > 45.8 µM | CCNC(=O)CCC/C=C\C[C@@H]1[C@@H](/C=C/[C@@H](O)CCc2ccccc2)[C@H](O)C[C@@H]1O [Bimatoprost]
6 | > 45.8 µM | > 45.8 µM | O=C(O)Cc1cccc(-c2cc(CCCCCCc3ccc(O[C@H]4O[C@H](CO)[C@@H](O)[C@H](O)[C@@H]4O)c(-c4cccc(CC(=O)O)c4)c3)ccc2O[C@H]2O[C@H](CO)[C@@H](O)[C@H](O)[C@@H]2O)c1 [Bimosiamose]
7 | > 45.8 µM | > 45.8 µM | O=C(O)CCCC[C@@H]1SC[C@@H]2NC(=O)N[C@@H]21 [Biotin]
8 | > 45.8 µM | > 45.8 µM | OC(CCN1CCCCC1)(c1ccccc1)C1CC2C=CC1C2 (centres undefined) [Biperiden]
9 | > 45.8 µM | > 45.8 µM | C/C(=C(\CCOC(=O)c1ccccc1)SS/C(CCOC(=O)c1ccccc1)=C(/C)N(C=O)Cc1cnc(C)nc1N)N(C=O)Cc1cnc(C)nc1N [Bisbentiamine]
10 | > 45.8 µM | > 45.8 µM | CC(=C(CCOC(=O)C(C)C)SSC(CCOC(=O)C(C)C)=C(C)N(C=O)Cc1cnc(C)nc1N)N(C=O)Cc1cnc(C)nc1N [Bisibutiamine]
11 | > 45.8 µM | > 45.8 µM | O.O.O=C(O)c1cc(O)c2c(c1)[O][Bi][O]2 [Bismuth(III) gallate basic hydrate]
12 | > 45.8 µM | > 45.8 µM | CC(C)NCC(O)COc1ccc(COCCOC(C)C)cc1 (centres undefined) [Bisoprolol fumarate]
13 | > 45.8 µM | > 45.8 µM | Cc1ccc(C(=O)Oc2ccc(C(O)CNC(C)(C)C)cc2OC(=O)c2ccc(C)cc2)cc1 (centres undefined) [Bitolterol]
14 | > 45.8 µM | > 45.8 µM | CCN1CCN(c2cc(-c3ccc(F)cc3)c3c(n2)CCCCCC3)CC1 [Blonanserin]
15 | > 45.8 µM | > 45.8 µM | CC(C)(C)NC(=O)N[C@H](C(=O)N1C[C@H]2[C@@H]([C@H]1C(=O)NC(CC1CCC1)C(=O)C(N)=O)C2(C)C)C(C)(C)C (some centres undefined) [Boceprevir]
16 | > 45.8 µM | > 45.8 µM | CC(=O)/C=C/C=C1/C2CCC(C2)C1(C)C (centres undefined) [Bornelone]
17 | > 45.8 µM | > 45.8 µM | COc1ccccc1Oc1c(NS(=O)(=O)c2ccc(C(C)(C)C)cc2)nc(-c2ncccn2)nc1OCCO [Bosentan]
18 | > 45.8 µM | > 45.8 µM | O=c1[nH]c(=O)n([C@@H]2O[C@H](CO)[C@@H](O)[C@@H]2O)cc1/C=C/Br [Bravavir]
19 | > 45.8 µM | > 45.8 µM | CC[N+](C)(C)Cc1ccccc1Br [Bretylium tosylate]
20 | > 45.8 µM | > 45.8 µM | Brc1c(NC2=NCCN2)ccc2nccnc12 [Brimonidine]

Row | IC50 cell viability (ICRF193 0 nM) | IC50 cell viability (ICRF193 200 nM) | Structure (SMILES)
21 | > 45.8 µM | > 45.8 µM | Cc1ccc(Sc2ccccc2N2CCNCC2)c(C)c1 [Brintellix]
22 | > 45.8 µM | > 45.8 µM | CCN[C@H]1CN(CCCOC)S(=O)(=O)c2sc(S(N)(=O)=O)cc21 [Brinzolamide]
23 | > 45.8 µM | > 45.8 µM | Nc1c(CC(=O)O)cccc1C(=O)c1ccc(Br)cc1 [Bromfenac sodium sesquihydrate]
24 | > 45.8 µM | > 45.8 µM | CN(Cc1cc(Br)cc(Br)c1N)C1CCCCC1 [Bromhexine hydrochloride]
25 | > 45.8 µM | > 45.8 µM | CN(C)CCOC(c1ccccc1)c1ccc(Br)cc1 (centres undefined) [Bromodiphenhydramine]
26 | > 45.8 µM | > 45.8 µM | CN(C)CCC(c1ccc(Br)cc1)c1ccccn1 (centres undefined) [Brompheniramine (maleate)]
27 | > 45.8 µM | > 45.8 µM | Nc1nc(=O)c(Br)c(-c2ccccc2)[nH]1 [Bropirimine]
28 | > 45.8 µM | > 45.8 µM | CC(C)(S)C(=O)N[C@@H](CS)C(=O)O [Bucillamine]
29 | > 45.8 µM | > 45.8 µM | CCCC1O[C@@H]2C[C@H]3[C@@H]4CCC5=CC(=O)C=C[C@]5(C)[C@H]4[C@@H](O)C[C@]3(C)[C@]2(C(=O)CO)O1 (some centres undefined) [Budesonide]
30 | > 45.8 µM | > 45.8 µM | CC(C)=C/C(C)=N/Nc1nncc2ccccc12 [Budralazine]
31 | > 45.8 µM | > 45.8 µM | CC(C)(C)NCC(O)COc1ccccc1OCC1CCCO1 (centres undefined) [Bufetolol]
32 | > 45.8 µM | > 45.8 µM | CCCCOc1ccc(CC(=O)NO)cc1 [Bufexamac]
33 | > 45.8 µM | > 45.8 µM | CCCCNC(=N)NC(=N)N [Buformin]
34 | > 45.8 µM | > 45.8 µM | CCCCNc1cc(C(=O)O)cc(S(N)(=O)=O)c1Oc1ccccc1 [Bumetanide]
35 | > 45.8 µM | > 45.8 µM | Cc1ccc(Cl)c(OCC(O)CNC(C)(C)C)c1 (centres undefined) [Bupranolol]
36 | > 45.8 µM | > 45.8 µM | CCOC(=O)c1cnc2cc(OCC(C)C)c(OCC(C)C)cc2c1O [Buquinolate]
37 | > 45.8 µM | > 45.8 µM | O=C1CC2(CCCC2)CC(=O)N1CCCCN1CCN(c2ncccn2)CC1 [Buspirone]
38 | > 45.8 µM | > 45.8 µM | CS(=O)(=O)OCCCCOS(C)(=O)=O [Busulfan]
39 | > 45.8 µM | > 45.8 µM | CCCCN(CCCC)CCCOC(=O)c1ccc(N)cc1 [Butacaine]

Row | Structure (SMILES) | IC50 cell viability (ICRF193 0 nM) | IC50 cell viability (ICRF193 200 nM)
40 | CCC(=O)O[C@@H]1C=C2CC[C@@H]3[C@H](CC[C@]4(C)[C@@H](OC(=O)CC)CC[C@@H]34)C2CC1 (some centres undefined) [Bolandiol dipropionate] | > 45.8 µM | > 45.8 µM
41 | C=CCCCCCCCCC(=O)O[C@H]1CC[C@H]2[C@@H]3CCC4=CC(=O)C=C[C@]4(C)[C@H]3CC[C@]12C [Boldenone Undecylenate] | > 45.8 µM | > 45.8 µM
42 | CCC[C@@H]1CC(=O)N([C@@H](CC)C(N)=O)C1 [Brivaracetam] | > 45.8 µM | > 45.8 µM
43 | CC(C)C(Br)C(=O)NC(N)=O (centres undefined) [Bromisovalum] | > 45.8 µM | > 45.8 µM
44 | Cc1nnc2n1-c1sc(Br)cc1C(c1ccccc1Cl)=NC2 [Brotizolam] | > 45.8 µM | > 45.8 µM
45 | COc1cc2c(cc1OC)C13CC[N+]4([O-])CC5=CCOC6CC(=O)N2C1C6C5CC34 (centres undefined) [Brucine-N-oxide] | > 45.8 µM | > 45.8 µM
46 | CCCCC1C(=O)NC(=O)N(C2CCCCC2)C1=O (centres undefined) [Bucolome] | > 45.8 µM | > 45.8 µM
47 | CC(NC(C)(C)C)C(=O)c1cccc(Cl)c1 (centres undefined) [Bupropion hydrochloride] | > 45.8 µM | > 45.8 µM
